What all share (conditions): in vivo
Data set [1] in a line: Oral bioavailability in dog at 5.5 mg/kg. Format: ADME, organism-based, Canis lupus familiaris.
Data set [2] is described as follows: Oral bioavailability in rhesus monkey at 5.5 mg/kg. In kind it is ADME, organism-based, Macaca mulatta.
Data set [3] can be described thus: Oral bioavailability in rat at 50.3 mg/kg. Format: ADME, organism-based.
Data set [4] in a line: Oral bioavailability in mouse at 50.3 mg/kg. Format: ADME, organism-based.

The results in this text go back to ChEMBL document CHEMBL1833794, “Synthesis and biological evaluation of 1-substituted-3-(6-methylpyridin-2-yl)-4-([1,2,4]triazolo[1,5-a]pyridin-6-yl)pyrazoles as transforming growth factor-β type 1 receptor kinase inhibitors” (Bioorg Med Chem Lett, 2011).

For orientation: bioavailability means dose-corrected exposure relative to a reference, in per cent.

For `Cc1cccc(-c2[nH]c(Cc3cccc(C(N)=O)c3)nc2-c2ccc3nccnc3c2)n1`, the bioavailability in data set [1] turned out to be 84.9%; in data set [2] it was 34.4%; in data set [3] it was 11.4%; in data set [4] it was 8.95%.
